In patent publication US7893109B2, “N,N-dihalogenated amino acids and derivatives” (Novabay Pharmaceuticals, Inc., priority 2003, dated 2011):
≈ marks a conversion by molar mass, not a printed value. Like-named read-outs stand apart in the source and are kept apart here.

What was measured:
[1] = type: physicochemical
From the text: N,N-dichlorotaurine can be identified and quantitatively determined by UV spectroscopy.

[2] = pH=1.88; after 100 hours; cited from earlier work
[3] = pH 3.5
[4] = system: Escherichia coli (ATCC 11229); test: Bactericidal activity (MBC / effective antimicrobial concentration); type: cell-based
Experimental: To determine the bactericidal activity, we used Escherichia coli (ATCC 11229). The bacterial culture was diluted in sterile saline to prepare inocula. Various test articles were transferred to individual tubes already containing 1.0×10^5 to 2.0×10^5 Colony Forming Units (CFU)/mL bacteria and mixed by gentle vortexing and then incubated at 37° C. for 1 or 24 hours. In an attempt to mimic as far as possible the conditions, which could be produced in vivo if the test articles were used as antiseptics, bacterial plating in a Petri dish was performed immediately after the designated exposure time without the addition of a neutralizer, and independently with addition of neutralizer (as control). Thus, 0.1 mL was removed after 1 or 24 hours exposure times and plated. Plates were incubated at 37° C., and the numbers of bacteria were counted by direct colony count to numerate the surviving bacteria as CFU/mL. Positive growth controls were made with sterile 0.9% saline. All test articles were tested three times.

[5] = Volatility test, tightly vs loosely capped bottles; type: physicochemical; conditions: 1.47 mM in 0.9% saline at pH 3.5; 4 weeks at room temperature
Experimental: NNDCT is not volatile. A solution of 1.47 mM in 0.9% saline at pH 3.5 was filled in two glass bottles. One bottle was capped tightly and another was capped loosely.

[6] = Storage stability of N,N-dichlorotaurine solution in a vial in a refrigerator; type: physicochemical; conditions: solution in a vial stored in a refrigerator; three months
Experimental: The stability of a solution of N,N-dihaloamino acids and their derivatives permits the use of different forms of packaging that would be practical for use by patients. The solution may be packaged in several single-use 30 ml amber glass bottles with Teflon-lined screw caps and sealed with tape to ensure gas tightness. In one aspect, the same solution may be packaged in a 250 ml amber glass bottle or in a 250 ml non-reactive plastic bottle. However, up to 5 liter bottles may be used, because such larger volumes are practical for treatment of burns. Storage in these receptacles ensures long-term stability required for the uses of the compositions described herein in detail. […] Additionally, packaging may include a dual chamber system where component A is mixed with component B to form the final product, N,N-dihaloamino acid or its derivatives.

[7] = system: Primary Human Skin Fibroblasts; test: XTT cytotoxicity assay, primary human skin fibroblasts; conditions: for cell inhibitory concentration toxicity index (CCI50 / IC50), 50% of cells still alive: Primary Human Skin Fibroblasts, XTT Assay, 60 min exposure
Experimental: (§1) Cytotoxicity was assessed by a […] assay system, initially described by Scudiero et al., using 3′-(phenylamino-carbonyl)-3,4-tetrazolium-bis(4-methoxy-6-nitro) benzene sulfonic acid hydrate (XTT), ProCheck™ cell viability assay (Evaluation of a soluble tetrazolium/formazan assay for cell growth and drug sensitivity in culture using human and other tumor cell lines described by Scudiero D A, Shoemaker R A H, Paul K D, Monks A, Tierney S, Nofziger T H, Currens M J, Seniff D, Boyd M R. Cancer Res. 1988 Sep. 1; 48(17):4827-33). Similar approaches for determining the cell viability are used by other investigators. Three cell types were used: […] (L929), primary human skin fibroblast and primary human keratinocyte cells cultured in Dulbecco Modified Eagle's Medium and Keratinocyte defined medium with corresponding growth factors plus antibiotics. Cells were trypsinized and counted under the microscope and seeded at 1000-to-2000 cells per well of a flat-bottom 96-well plate. Cells were allowed to grow over-night at 37° C. Next day, tissue culture media was removed and cells were rinsed with fresh media 1× and then left in 50 μL of tissue culture media. Test articles were prepared as 2-fold dilutions and 200 μL was added into each set of 4-wells (total volume per well=250 μL). Cells were exposed to test articles for 60 min at room temperature. Immediately after the exposed time, test article from each well was removed and cells were fed with 250 μL of fresh media. Plates were incubated at 37° C. for 18-20 hours. The following day media was removed again and replaced with 100 μL/well of fresh media containing 10/100 μL XTT-reagent. Cells were incubated under growth conditions (5% CO2 at 37° C. humidified incubator), protected from light, until color development was achieved. Absorbance was read at 450 nm with reference wavelength at 750 nm using Molecular Device ThermoMax Plate reader, blanking the plate on the medium-only assay blank wells. Untreated cells receiving XTT reagents-only served as positive cell proliferation control.

in vitro = conditions: human, pH 3.5
Experimental: as §1

[8] = UV-vis spectrum and concentration of NNDCT solutions at pH 3.0 to 5.0; type: physicochemical; conditions: 1.49 mM; pH range from 3.0 to 5.0
Experimental: The spectra and the concentrations of the solutions were measured on the UV-vis spectrometer.
Add 8.8 g NaCl, 2 ml of 1.0 M HCl, and 0.278 g of taurine into a 1000-ml volumetric flask, followed by adding about 800 ml of deionized water into the flask. Shake the flask to dissolve NaCl and taurine powders. Then add […] of 0.15M of the NaOCl solution into the flask. Fill the flask up to the mark with deionized water. Stir the solution with a magnetic stirring bar for 5 minutes. The concentration and the pH of the resulting solution were measured on a UV-vis spectrometer and a freshly calibrated Beckman pH meter. This solution has a concentration of 1.49 mM and a pH value of 3.85. […] The final pH of this solution is 3.0. […] The final pH of this solution is 4.85.
Solutions with varying pH values were prepared in a similar manner within the pH range of 3 to 5. All solutions show stability if properly stored as shown by their UV spectra.

## O=S(=O)(O)CCN(Cl)Cl [NNDCT, N,N-dichlorotaurine]
[1]
  solubility in water: very soluble
[2]
  loss of N,N-dichlorotaurine: less than 5%
[3]; 4 weeks, refrigerator (4° C.), [NNDCT]initial=1.47 mM
  NNDCT lost: 5.4%
[3]
  order of stability at three temperatures: 4° C.>room temperature>40 °C
[4]; 60 min exposure at 37° C.
  bacterial killing efficiency of NNDCT at pH 3.5 compared to NCT at pH 9.5: 1000 fold
  bacterial killing efficiency of NNDCT at pH 3.5 over NNDCT at pH 5.0: about 300 fold
[4]; pH 3.5
  effectiveness against E. coli compared with HOCl: better or as effective against E. coli as HOCl
[5]
  volatility: not volatile
[6]
  loss of N,N-dichlorotaurine: no more than 13%
[7]; 0.9% saline at pH 3.5, XTT assay, cell type not stated in Example 5
  range of cell toxicity relative to antimicrobial (μM) range: 1000 fold
[7]
  cell inhibitory concentration toxicity index (CCI50 / IC50), 50% of cells still alive: 7000 µM
In vitro
  IC50 at 60 min: 1440 µg/mL (≈ 7.43 mM)
[8]
  change of spectrum and concentration of solution with pH: did not change

## OCl [HOCl, hypochlorous acid, reference compound]
[7]
  cell inhibitory concentration toxicity index (CCI50 / IC50), 50% of cells still alive: 800 µM
In vitro
  IC50 at 60 min: 47 µg/mL (≈ 0.896 mM)

## OCl [OCl^−, reference compound]
[7]
  cell inhibitory concentration toxicity index (CCI50 / IC50), 50% of cells still alive: 660 µM

## O=S(=O)(O)CCNCl [NCT, N-chlorotaurine, reference compound]
[4]; on an equal concentration basis
  factor by which less antimicrobial than NNDCT: 1000 fold
